Assay [1] concerns Bacillus subtilis. Kind of assay: Antibacterial activity against Bacillus subtilis 168 at 100 ug after 24 hrs by agar plate diffusion assay. The format is functional. The settings on record: for zone of inhibition at 100 µg/disc: subsp. subtilis str. 168, 24 h, read-out: IZ.
For assay [2], the system named is Spodoptera littoralis. Kind of assay: Insecticidal activity against Spodoptera littoralis neonate larvae assessed as survival at 270 ppm in artificial diet after 6 days relative to control. Format: functional.
Assay [3] concerns Staphylococcus aureus. In words: Antibacterial activity against Staphylococcus aureus ATCC 25923 at 100 ug after 24 hrs by agar plate diffusion assay. Format: functional. The settings on record: ATCC 25923, 24 h, read-out: IZ.
The subject of assay [4] is Escherichia coli. Kind of assay: Antibacterial activity against Escherichia coli ATCC 25922 at 100 ug after 24 hrs by agar plate diffusion assay. Format: functional, organism-based.
The test system of assay [5] is Spodoptera littoralis. In words: Insecticidal activity against Spodoptera littoralis neonate larvae assessed as survival treated with artificial diet after 6 days. The format is functional, organism-based.

Converted amounts (≈) assume the structure as drawn. The source made the active and inactive calls. No cut-off for these calls is given here.

Turning to GENTAMICIN, in assay [1] (subsp. subtilis str. 168), the inhibition zone (IZ) worked out at 16 mm.

Regarding `C/C=C(/C)C(=O)OCc1nccc2c1C(=O)C(OC)=C(C)C2=O` [RENIERONE], the Activity in assay [2] is 60%. The figures for the zone of inhibition at 100 µg/disc in assay [3] and in assay [1] were 14 mm and 15 mm, respectively. Besides, the result in assay [4] was inactive.

In the case of `C/C=C(/C)C(=O)OCC1C2=C(C=CN1/C=C/C(C)=O)C(=O)C(C)=C(OC)C2=O` (stereo not given), the Activity in assay [2] is on record as 50%. The zone of inhibition at 100 µg/disc in assay [3] and in assay [1] was 15 mm each time. Also, in assay [4], the result was inactive.

Broadly, the LC50 is the concentration that kills 50% of the test population. With `COC1=C(C)C(=O)c2ccnc(C)c2C1=O`, the Activity in assay [2] is 93%. The zone of inhibition at 100 µg/disc in assay [3] was determined as 9 mm; in assay [1], 12 mm. Moreover, the result in assay [4] was inactive. For the same compound, in assay [5], the EC50 was determined as 35 ppm. In addition, in assay [5] (Spodoptera littoralis, 144 h), the LC50 worked out at 521 µg/mL (≈ 2400 µM).

The record behind these values is ChEMBL document CHEMBL1158258, “Bioactive Isoquinoline Quinone from an Undescribed Philippine Marine Sponge of the Genus Xestospongia” (J Nat Prod, 1996).
